Measurements reported in US10280149B2, “Therapeutic compounds and uses thereof” (GENENTECH, INC., priority 2015, dated 2019).
pIC50: −log10 of the molar value. Counter-ions that a name gives are not always drawn.

Molecular target: Full length KDM2B (Homo sapiens (Human), UniProt Q8NHM5)
Experiment: KDM2B TR-FRET assay for determining inhibitor IC50
Assay type: biochemical
Details: TR-FRET (HTRF), biotin-H3K36me2 peptide substrate, 2-OG 0.3 μM or 6 μM
Source text: KDM2B TR-FRET Assay for Determining Inhibitor IC50
The KDM2B TR-FRET Assay described above represents an additional embodiment of the invention.

Sequence of Full length KDM2B (Q8NHM5 whole entry): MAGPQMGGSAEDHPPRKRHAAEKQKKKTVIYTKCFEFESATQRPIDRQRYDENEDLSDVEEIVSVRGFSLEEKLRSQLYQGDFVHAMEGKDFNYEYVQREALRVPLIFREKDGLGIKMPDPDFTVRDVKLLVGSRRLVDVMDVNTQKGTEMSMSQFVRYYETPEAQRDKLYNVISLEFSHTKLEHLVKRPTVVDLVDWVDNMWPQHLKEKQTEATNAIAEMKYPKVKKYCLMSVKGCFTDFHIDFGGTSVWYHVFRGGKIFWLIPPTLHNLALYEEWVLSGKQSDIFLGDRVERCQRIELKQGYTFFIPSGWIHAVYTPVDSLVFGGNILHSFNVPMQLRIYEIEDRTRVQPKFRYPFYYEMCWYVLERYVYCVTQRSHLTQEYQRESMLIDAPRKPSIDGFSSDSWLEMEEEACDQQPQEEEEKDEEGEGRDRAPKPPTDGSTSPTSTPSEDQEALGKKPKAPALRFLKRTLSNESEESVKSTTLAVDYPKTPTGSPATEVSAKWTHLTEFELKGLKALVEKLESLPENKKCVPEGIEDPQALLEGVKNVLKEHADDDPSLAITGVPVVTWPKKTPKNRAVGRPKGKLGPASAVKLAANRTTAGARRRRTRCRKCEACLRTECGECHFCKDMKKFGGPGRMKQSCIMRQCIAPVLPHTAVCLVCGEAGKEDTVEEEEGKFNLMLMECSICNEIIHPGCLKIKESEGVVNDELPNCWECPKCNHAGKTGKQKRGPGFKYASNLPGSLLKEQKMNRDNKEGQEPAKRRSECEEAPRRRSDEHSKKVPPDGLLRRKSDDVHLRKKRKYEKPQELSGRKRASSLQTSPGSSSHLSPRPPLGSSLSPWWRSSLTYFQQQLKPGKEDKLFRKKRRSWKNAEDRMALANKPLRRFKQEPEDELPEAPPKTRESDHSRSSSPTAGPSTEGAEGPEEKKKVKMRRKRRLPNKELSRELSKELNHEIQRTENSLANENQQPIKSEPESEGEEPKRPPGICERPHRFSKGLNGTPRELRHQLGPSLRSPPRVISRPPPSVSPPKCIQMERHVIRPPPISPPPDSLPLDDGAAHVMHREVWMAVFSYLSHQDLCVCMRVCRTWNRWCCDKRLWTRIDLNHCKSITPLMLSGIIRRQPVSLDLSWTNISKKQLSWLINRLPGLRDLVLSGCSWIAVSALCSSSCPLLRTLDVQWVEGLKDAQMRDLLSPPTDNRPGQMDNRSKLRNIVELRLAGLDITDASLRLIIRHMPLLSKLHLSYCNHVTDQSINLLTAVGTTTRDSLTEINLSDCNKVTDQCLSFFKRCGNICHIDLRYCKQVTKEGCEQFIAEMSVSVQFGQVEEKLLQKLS

Row | SMILES | pIC50
1 | COc1ccc2cc(C(=O)C3CN(C4CCC4)CCN3Cc3cccc(C#N)c3)ccc2c1 (stereo not drawn) [Example 193, 3-[[4-cyclobutyl-2-(6-methoxynaphthalene-2-carbonyl)piperazin-1-yl]methyl]benzonitrile] | 7.65
2 | CS(=O)(=O)c1ccc2cc(C(=O)C3CCCN(C4CCCC4)C3)ccc2c1 (stereo not drawn) [Example 171, (1-cyclopentylpiperidin-3-yl)(6-(methylsulfonyl)naphthalen-2-yl)methanone] | 6.99
3 | O=C(c1ccc(-c2ccccc2)cc1)[C@H]1CCCN(CC2CC2)C1 [Example 33, [(3S)-1-(cyclopropylmethyl)-3-piperidyl]-(4-phenylphenyl)methanone] | 7.02
4 | COc1ccccc1C(=O)[C@@H]1CCCN(CC2CC2)C1 (stereo in doubt) [Example 111, (1-(cyclopropylmethyl)piperidin-3-yl)(2-methoxyphenyl)methanone] | 5.51
5 | COc1cccc2cc(C(=O)[C@@H]3CN(CC4CC4)CC[C@@H]3C)ccc12 (single isomer, unassigned) [Example 136b, (1-(cyclopropylmethyl)-4-methylpiperidin-3-yl)(5-methoxynaphthalen-2-yl)methanone] | 5.92
6 | O=C(c1ccc(Oc2ccccc2)cc1)C1CCCN(CC2CC2)C1 (stereo not drawn) [Example 23, [1-(cyclopropylmethyl)-3-piperidyl]-(4-phenoxyphenyl)methanone] | 5.68
7 | CCCN1CC[C@H](C)[C@@H](C(=O)c2ccc3cc(C#N)ccc3c2)C1 (stereo in doubt) [Example 163a, 6-(4-methyl-1-propylpiperidine-3-carbonyl)-2-naphthonitrile] | 6.00
8 | COc1ccc2cc(C(=O)[C@H]3CN(C4CCC4)CC[C@H]3CC(C)C)ccc2c1CC#N (stereo in doubt) [Example 185b, 2-(6-(1-cyclobutyl-4-isobutylpiperidine-3-carbonyl)-2-methoxynaphthalen-1-yl)acetonitrile] | 8.70
9 | CC(O)c1cc(C(=O)C2CCCN(C3CCCC3)C2)cc2ccccc12 (stereo not drawn) [Example 63, (1-cyclopentyl-3-piperidyl)-[4-(1-hydroxyethyl)-2-naphthyl]methanone] | 6.82
10 | O=C(c1cccc(Oc2ccccc2)c1)C1CCCN(CC2CC2)C1 (stereo not drawn) [Example 21, [1-(cyclopropylmethyl)-3-piperidyl]-(3-phenoxyphenyl)methanone] | 6.34
11 | CCCN1CCCC(C(=O)c2ccc(OC)cc2)C1 (stereo not drawn) [Example 97, (4-methoxyphenyl)-(1-propyl-3-piperidyl)methanone] | 6.03
12 | CCC1CCN(C2CC2)CC1C(=O)c1ccc2cc(OC)ccc2c1 (single isomer, unassigned) [Example 147a, (1-cyclopropyl-4-ethylpiperidin-3-yl)(6-methoxynaphthalen-2-yl)methanone] | 5.70
13 | O=C(c1cc(CO)c2ccccc2c1)C1CCCN(C2CCCC2)C1 (stereo not drawn) [Example 57, (1-cyclopentyl-3-piperidyl)-[4-(hydroxymethyl)-2-naphthyl]methanone] | 6.90
14 | O=C(c1ccc2cnccc2c1)C1CCCN(C2CCC2)C1 (stereo not drawn) [Example 135] | 6.65
15 | COc1ccc2cc(C(=O)C3CCCN(C4CCC4)C3)ccc2c1C (stereo not drawn) [Example 52, (1-cyclobutyl-3-piperidyl)-(6-methoxy-5-methyl-2-naphthyl)methanone] | 7.40
16 | COc1ccc2cc(C(=O)C3CCCN(C4CCC4)C3)ccc2c1CC#N (stereo not drawn) [Example 55, 2-[6-(1-cyclobutylpiperidine-3-carbonyl)-2-methoxy-1-naphthyl]acetonitrile] | 7.88
17 | CNC(=O)c1cc(C(=O)C2CCCN(C3CCC3)C2)cc2ccccc12 (stereo not drawn) [Example 42, 3-(1-cyclobutylpiperidine-3-carbonyl)-N-methyl-naphthalene-1-carboxamide] | 6.61
18 | CC[C@H]1CCN(C2CCC2)C[C@@H]1C(=O)c1ccc2c(CC#N)c(OC)ccc2c1 (stereo in doubt) [Example 183b, 2-(6-(1-cyclobutyl-4-ethylpiperidine-3-carbonyl)-2-methoxynaphthalen-1-yl)acetonitrile] | 8.69
19 | O=C(c1ccccc1Cl)C1CCCN(CC2CC2)C1 (stereo not drawn) [Example 113, (2-chlorophenyl)(1-(cyclopropylmethyl)piperidin-3-yl)methanone] | 5.27
20 | COc1ccc2cc(C(=O)C3CCCN(CCC#N)C3)ccc2c1 (stereo not drawn) [Example 84, 3-[3-(6-methoxynaphthalene-2-carbonyl)-1-piperidyl]propanenitrile] | 6.15
21 | CCC[C@H]1CCN(C2CCC2)C[C@H]1C(=O)c1ccc2c(CC#N)c(OC)ccc2c1 (stereo in doubt) [Example 184b, 2-(6-(1-cyclobutyl-4-propylpiperidine-3-carbonyl)-2-methoxynaphthalen-1-yl)acetonitrile] | 8.85
22 | COc1ccc2cc(C(=O)[C@@H]3CCCN(C4CCC4)C3)ccc2c1CC#N (stereo in doubt) [Example 179b, 2-(6-(1-cyclobutylpiperidine-3-carbonyl)-2-methoxynaphthalen-1-yl)acetonitrile] | 6.44
23 | O=C(c1cc(F)c2ccccc2c1)C1CCCN(CC2CC2)C1 (stereo not drawn) [Example 26, [1-(cyclopropylmethyl)-3-piperidyl]-(4-fluoro-2-naphthyl)methanone] | 6.26

Row | SMILES | pIC50
24 | CCC[C@@H]1CCN(C2CCC2)C[C@H]1C(=O)c1ccc2c(CC#N)c(OC)ccc2c1 (stereo in doubt) [Example 184c, 2-(6-(1-cyclobutyl-4-propylpiperidine-3-carbonyl)-2-methoxynaphthalen-1-yl)acetonitrile] | 8.50
25 | CCN1CCN(C2CCC2)CC1C(=O)c1ccc2cc(OC)ccc2c1 (stereo not drawn) [Example 190] | 6.01
26 | O=C(c1ccc2c(c1)CCCCC2)C1CCCN(C2CCC2)C1 (stereo not drawn) [Example 132, (1-cyclobutylpiperidin-3-yl)(6,7,8,9-tetrahydro-5H-benzo[7]annulen-2-yl)methanoe] | 7.26
27 | NC(=O)c1cc(C(=O)C2CCCN(CC3CC3)C2)cc2ccccc12 (stereo not drawn) [Example 48, 3-[1-(cyclopropylmethyl)piperidine-3-carbonyl]naphthalene-1-carboxamide] | 6.74
28 | COc1ccc2cc(C(=O)[C@@H]3CN(CC4CC4)CC[C@H]3C)ccc2c1 (single isomer, unassigned) [Example 137b, (1-(cyclopropylmethyl)-4-methylpiperidin-3-yl)(6-methoxynaphthalen-2-yl)methanone] | 7.03
29 | Cn1c(=O)n(C)c2cc(C(=O)C3CCCN(CC4CC4)C3)ccc21 (stereo not drawn) [Example 130, 5-(1-(cyclopropylmethyl)piperidine-3-carbonyl)-1,3-dimethyl-1H-benzo[d]imidazol-2-one] | 6.35
30 | NCc1cc(C(=O)C2CCCN(CC3CC3)C2)cc2ccccc12 (stereo not drawn) [Example 37, [4-(aminomethyl)-2-naphthyl]-[1-(cyclopropylmethyl)-3-piperidyl]methanone] | 6.21
31 | CCCN1CCCC(C(=O)c2ccc3c(CC#N)c(OC)ccc3c2)C1 (stereo not drawn) [Example 56, 2-[2-methoxy-6-(1-propylpiperidine-3-carbonyl)-1-naphthyl]acetonitrile] | 6.57
32 | O=C(c1cccc2ccccc12)C1CCCN(CC2CC2)C1 (stereo not drawn) [Example 126, (1-(cyclopropylmethyl)piperidin-3-yl)(naphthalen-1-yl)methanone] | 5.42
33 | COc1ccc(C(=O)[C@@H]2CCCN(C3CCC3)C2)c(OC)c1 [Example 12, [(3R)-1-cyclobutyl-3-piperidyl]-(2,4-dimethoxyphenyl)methanone] | 5.05
34 | COc1cc2ccc(C(=O)C3CCCN(CC4CC4)C3)cc2cn1 (stereo not drawn) [Example 121, (1-(cyclopropylmethyl)piperidin-3-yl)(3-methoxyisoquinolin-7-yl)methanone] | 6.42
35 | O=C(c1ccc(F)c2ccccc12)C1CCCN(CC2CC2)C1 (stereo not drawn) [Example 127, (1-(cyclopropylmethyl)piperidin-3-yl)(4-fluoronaphthalen-1-yl)methanone hydrochloride] | 5.72
36 | NC(=O)c1cc(C(=O)C2CCCN(C3CCC3)C2)cc2ccccc12 (stereo not drawn) [Example 47, 3-(1-cyclobutylpiperidine-3-carbonyl)naphthalene-1-carboxamide] | 7.00
37 | O=C(c1ccc2c(O)cccc2c1)C1CCCN(CC2CC2)C1 (stereo not drawn) [Example 150, (1-(cyclopropylmethyl)piperidin-3-yl)(5-hydroxynaphthalen-2-yl)methanone] | 6.88
38 | COc1ccc2cc(C(=O)C3CN(C4CCC4)CCN3C)ccc2c1 (stereo not drawn) [Example 194, (4-cyclobutyl-1-methyl-piperazin-2-yl)-(6-methoxy-2-naphthyl)methanone] | 5.77
39 | CCCN1CCCC(C(=O)c2ccc3cccc(C)c3c2)C1 (stereo not drawn) [Example 60, (8-methyl-2-naphthyl)-(1-propyl-3-piperidyl)methanone] | 6.90
40 | COc1ccc2cc(C(=O)[C@@]3(F)CCCN(CC4CC4)C3)ccc2c1 (stereo in doubt) [Example 157] | 5.21
41 | COc1ccc2cc(C(=O)C3CCCN(CC4CCC4)C3)ccc2c1 (stereo not drawn) [Example 69, [1-(cyclobutylmethyl)-3-piperidyl]-(6-methoxy-2-naphthyl)methanone] | 6.82
42 | O=C(c1ccc2cc(CO)ccc2c1)C1CCCN(CC2CC2)C1 (stereo not drawn) [Example 152, (1-(cyclopropylmethyl)piperidin-3-yl)(6-(hydroxymethyl)naphthalen-2-yl)methanone] | 6.63
43 | O=C(c1ccc(Cl)cc1)[C@H]1CCCN(CC2CC2)C1 (stereo in doubt) [Example 116b, (4-chlorophenyl)(1-(cyclopropylmethyl)piperidin-3-yl)methanone] | 5.85
44 | COc1ccc2cc(C(=O)C3CCCN(CC4CC4)C3)ccc2c1CO (stereo not drawn) [Example 188, (1-(cyclopropylmethyl)piperidin-3-yl)(5-(hydroxymethyl)-6-methoxynaphthalen-2-yl)methanone hydrochloride] | 6.88
45 | Cc1cccc2ccc(C(=O)C3CCCN(C4CCC4)C3)cc12 (stereo not drawn) [Example 62, (1-cyclobutyl-3-piperidyl)-(8-methyl-2-naphthyl)methanone] | 6.99
